The test addresses T1, N-terminal HiBiT tagged BCL6 (Homo sapiens, UniProt P41182).
T1 construct: expressed in transfected cells; host or cells: HT1080 (ATCC CCL-121), stably transduced with lentivirus pLV-UBC-N-HiBiT-BCL6-PGK-puro
The test can be described thus: HiBiT based degradation assay. In kind it is cell-based. The conditions noted are these: HT1080 cells expressing N-terminal HiBiT tagged BCL6, 5 hours of incubation; for Ymin (5 hr): BCL6 degradation normalized with DMSO control; for DC50: four-parameter logistic model, read-out: EC50 (5 hr). Put shortly:
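Degradation measured by luminescence from the Nano-Glo HiBiT lytic reagent (15 min, room temperature), normalized to DMSO controls and fitted to a four-parameter curve.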

Turning to `CNC(=O)COc1cc2cc(Nc3nc(N4CCCN(CC5CCN(c6cccc7c(C8CCC(=O)NC8=O)nn(C)c67)CC5)CC4)ncc3Cl)cnc2n(C)c1=O` (stereo not drawn) [Compound 110, 2-((6-((5-chloro-2-(4-((1-(3-(2,6-dioxopiperidin-3-yl)-1-methyl-1H-indazol-7-yl)piperidin-4-yl)methyl)-1,4-diazepan-1-yl)pyrimidin-4-yl)amino)-1-methyl-2-oxo-1,2-dihydro-1,8-naphthyridin-3-yl)oxy)-N-methylacetamide], the “Ymin (5 hr)” value is on record as “+++ (30% ≤ Ymin < 50%)” and the DC50 lay in the range of 10 to 100 nM.

In the case of `CNC(=O)COc1cc2cc(Nc3nc(N4CCCN(CC5CCN(c6ccc7c(C8CCC(=O)NC8=O)nn(C)c7c6)CC5)CC4)ncc3Cl)cnc2n(C)c1=O` (stereo not drawn) [Compound 111, 2-((6-((5-chloro-2-(4-((1-(3-(2,6-dioxopiperidin-3-yl)-1-methyl-1H-indazol-6-yl)piperidin-4-yl)methyl)-1,4-diazepan-1-yl)pyrimidin-4-yl)amino)-1-methyl-2-oxo-1,2-dihydro-1,8-naphthyridin-3-yl)oxy)-N-methylacetamide], the “Ymin (5 hr)” value is reported as “+++ (30% ≤ Ymin < 50%)” and the DC50 was under 10 nM.

Consider `CNC(=O)COc1cc2cc(Nc3nc(N4CCC5(CCN(CC6CCN(c7cccc8c(C9CCC(=O)NC9=O)nn(C)c78)CC6)CC5)CC4)ncc3Cl)cnc2n(C)c1=O` (stereo not drawn) [Compound 113, 2-((6-((5-chloro-2-(9-((1-(3-(2,6-dioxopiperidin-3-yl)-1-methyl-1H-indazol-7-yl)piperidin-4-yl)methyl)-3,9-diazaspiro[5.5]undecan-3-yl)pyrimidin-4-yl)amino)-1-methyl-2-oxo-1,2-dihydro-1,8-naphthyridin-3-yl)oxy)-N-methylacetamide], for which the “Ymin (5 hr)” value was “++++ (Ymin < 30%)” and the DC50 was in the range of 10 to 100 nM.

Regarding `CNC(=O)COc1cc2cc(Nc3nc(N4CCN(CCC5CCN(c6ccc7c(C8CCC(=O)NC8=O)nn(C)c7c6)CC5)CC4)ncc3Cl)cnc2n(C)c1=O` (stereo not drawn) [Compound 114, 2-((6-((5-chloro-2-(4-(2-(1-(3-(2,6-dioxopiperidin-3-yl)-1-methyl-1H-indazol-6-yl)piperidin-4-yl)ethyl)piperazin-1-yl)pyrimidin-4-yl)amino)-1-methyl-2-oxo-1,2-dihydro-1,8-naphthyridin-3-yl)oxy)-N-methylacetamide], the “Ymin (5 hr)” value was “+++ (30% ≤ Ymin < 50%)” and the DC50 is under 10 nM.

In the case of `CNC(=O)COc1cc2cc(Nc3nc(N4CCN(CCC5CCN(c6cccc7c(C8CCC(=O)NC8=O)nn(C)c67)CC5)CC4)ncc3Cl)cnc2n(C)c1=O` (stereo not drawn) [Compound 115, 2-((6-((5-chloro-2-(4-(2-(1-(3-(2,6-dioxopiperidin-3-yl)-1-methyl-1H-indazol-7-yl)piperidin-4-yl)ethyl)piperazin-1-yl)pyrimidin-4-yl)amino)-1-methyl-2-oxo-1,2-dihydro-1,8-naphthyridin-3-yl)oxy)-N-methylacetamide], the “Ymin (5 hr)” value is on record as “+++ (30% ≤ Ymin < 50%)” and the DC50 was under 10 nM.

For `CNC(=O)COc1cc2cc(Nc3nc(N4CC5COCC(C4)N5CC4CCN(c5cccc6c(C7CCC(=O)NC7=O)nn(C)c56)CC4)ncc3Cl)cnc2n(C)c1=O` (stereo not drawn) [Compound 117, 2-((6-((5-chloro-2-(9-((1-(3-(2,6-dioxopiperidin-3-yl)-1-methyl-1H-indazol-7-yl)piperidin-4-yl)methyl)-3-oxa-7,9-diazabicyclo[3.3.1]nonan-7-yl)pyrimidin-4-yl)amino)-1-methyl-2-oxo-1,2-dihydro-1,8-naphthyridin-3-yl)oxy)-N-methylacetamide], the “Ymin (5 hr)” value was “++++ (Ymin < 30%)” and the DC50 was under 10 nM.

Source of the values: patent US20260241012A1, “1,8-NAPHTHYRIDIN-2-ONE HETEROBIFUNCTIONAL BCL6 DEGRADERS” (Treeline Biosciences, Inc., priority 2022, published 2026).
